Test results: patent US10548317B2, “Pesticidally active pyrazole derivatives” (SYNGENTA PARTICIPATIONS AG, priority 2015, dated 2020)

Tests used:
Format in all cases: in vivo
Diabrotica balteata = Diabrotica balteata (corn root worm) maize sprout test; conditions: 96 h, application rate of 200 ppm, maize sprouts, L2 larvae, 4 days after infestation, read-out: effect in at least one of the two categories (mortality or growth inhibition)
Protocol: Diabrotica balteata, (Corn Root Worm)
Maize sprouts, placed on an agar layer in 24-well microtiter plates were treated with aqueous test solutions prepared from 10'000 ppm DMSO stock solutions by spraying. After drying, the plates were infested with L2 larvae (6 to 10 per well). The samples were assessed for mortality and growth inhibition in comparison to untreated samples 4 days after infestation. The following compounds gave an effect of at least 80% in at least one of the two categories (mortality or growth inhibition) at an application rate of 200 ppm: 1, 3, 4, 5, 6, 7, 8, 9, 10, 11, 12, 14, 15, 16, 17, 18, 19, 20, 21, 22, 23, 24, 25, 26, 27, 28, 29, 30, 31, 32, 33, 35, 36, 37, 38, 39, 40, 41, 42, 43, 44, 45, 48, 50, 51, 52, 53, 54 and 55.

Thrips tabaci = Thrips tabaci (onion thrips) sunflower leaf disc test; conditions: foliar, 144 h, application rate of 200 ppm, sunflower leaf discs, mixed ages, 6 days after infestation
Protocol: Thrips tabaci (Onion thrips):
Sunflower leaf discs were placed on agar in 24-well microtiter plates and sprayed with aqueous test solutions prepared from 10'000 ppm DMSO stock solutions. After drying the leaf discs were infested with a thrips population of mixed ages. The samples were assessed for mortality 6 days after infestation.

Spodoptera littoralis = Spodoptera littoralis (Egyptian cotton leaf worm) leaf disc spray test; conditions: foliar, 72 h, application rate of 200 ppm, cotton leaf discs, L1 larvae, 3 days after infestation, read-out: control (at least one of mortality, anti-feedant effect, growth inhibition)
Protocol: Spodoptera littoralis (Egyptian Cotton Leaf Worm)
Cotton leaf discs were placed on agar in 24-well microtiter plates and sprayed with aqueous test solutions prepared from 10'000 ppm DMSO stock solutions. After drying the leaf discs were infested with five L1 larvae. The samples were assessed for mortality, anti-feedant effect, and growth inhibition in comparison to untreated samples 3 days after infestation. Control of Spodoptera littoralis by a test sample is when at least one of mortality, anti-feedant effect, and growth inhibition is higher than the untreated sample.

Tetranychus urticae = Tetranychus urticae (two-spotted spider mite) bean leaf disc test; conditions: foliar, 192 h, application rate of 200 ppm, bean leaf discs, mixed population (mobile stages), 8 days after infestation
Protocol: Tetranychus urticae (Two-Spotted Spider Mite):
Bean leaf discs on agar in 24-well microtiter plates were sprayed with aqueous test solutions prepared from 10'000 ppm DMSO stock solutions. After drying the leaf discs were infested with a mite population of mixed ages. The samples were assessed for mortality on mixed population (mobile stages) 8 days after infestation.

Plutella xylostella = Plutella xylostella (diamond back moth) artificial diet test; conditions: 120 h, application rate of 200 ppm, L2 larvae, 5 days after infestation, read-out: effect in at least one of the two categories (mortality or growth inhibition)
Protocol: Plutella xylostella (Diamond Back Moth):
24-well microtiter plates with artificial diet were treated with aqueous test solutions prepared from 10'000 ppm DMSO stock solutions by pipetting. After drying, the plates were infested with L2 larvae (10 to 15 per well). The samples were assessed for mortality and growth inhibition in comparison to untreated samples 5 days after infestation. The following compounds gave an effect of at least 80% in at least one of the two categories (mortality or growth inhibition) at an application rate of 200 ppm: 1, 2, 3, 4, 5, 6, 7, 8, 9, 10, 11, 12, 13, 14, 15, 16, 17, 18, 19, 20, 21, 22, 23, 24, 25, 26, 27, 28, 29, 30, 31, 32, 33, 35, 36, 37, 38, 39, 40, 41, 42, 43, 44, 45, 46, 47, 48, 50, 51, 52, 53, 54 and 55.

Cn1nc(C(F)(F)C(F)(F)F)c(C(F)(F)F)c1-n1cc(-c2cc(Cl)c(C(=O)NC3CC3)s2)cn1 [Compound 1, 3-chloro-N-cyclopropyl-5-[1-[2-methyl-5-(1,1,2,2,2-pentafluoroethyl)-4-(trifluoromethyl)pyrazol-3-yl]pyrazol-4-yl]thiophene-2-carboxamide]
≥ 80%: percent effect (mortality or growth inhibition) at 200 ppm (Diabrotica balteata) | mortality at 200 ppm (Thrips tabaci) | control (mortality, anti-feedant effect or growth inhibition) at 200 ppm (Spodoptera littoralis) | mortality at 200 ppm (Tetranychus urticae) | percent effect (mortality or growth inhibition) at 200 ppm (Plutella xylostella)

Cn1nc(C(F)(F)C(F)(F)F)c(C(F)(F)F)c1-n1cc(-c2cc(Cl)c(C(=O)NC3(C#N)CC3)s2)cn1 [Compound 2, 3-chloro-N-(1-cyanocyclopropyl)-5-[1-[2-methyl-5-(1,1,2,2,2-pentafluoroethyl)-4-(trifluoromethyl)pyrazol-3-yl]pyrazol-4-yl]thiophene-2-carboxamide]
≥ 80%: control (mortality, anti-feedant effect or growth inhibition) at 200 ppm (Spodoptera littoralis) | percent effect (mortality or growth inhibition) at 200 ppm (Plutella xylostella)

Cn1nc(C(F)(F)C(F)(F)F)c(C(F)(F)F)c1-n1cc(-c2nc(C(=O)NC3(C#N)CC3)c(Cl)s2)cn1 [Compound 7, 5-chloro-N-(1-cyanocyclopropyl)-2-[1-[2-methyl-5-(1,1,2,2,2-pentafluoroethyl)-4-(trifluoromethyl)pyrazol-3-yl]pyrazol-4-yl]thiazole-4-carboxamide]
≥ 80%: percent effect (mortality or growth inhibition) at 200 ppm (Diabrotica balteata) | control (mortality, anti-feedant effect or growth inhibition) at 200 ppm (Spodoptera littoralis) | mortality at 200 ppm (Tetranychus urticae) | percent effect (mortality or growth inhibition) at 200 ppm (Plutella xylostella)

Cn1nc(C(F)(F)C(F)(F)F)c(C(F)(F)F)c1-n1cc(-c2nc(C(=O)NC3CC3)c(Cl)s2)cn1 [Compound 8, 5-chloro-N-cyclopropyl-2-[1-[2-methyl-5-(1,1,2,2,2-pentafluoroethyl)-4-(trifluoromethyl)pyrazol-3-yl]pyrazol-4-yl]thiazole-4-carboxamide]
≥ 80%: percent effect (mortality or growth inhibition) at 200 ppm (Diabrotica balteata) | control (mortality, anti-feedant effect or growth inhibition) at 200 ppm (Spodoptera littoralis) | percent effect (mortality or growth inhibition) at 200 ppm (Plutella xylostella)

Cn1nc(C(F)(F)C(F)(F)F)c(C(F)(F)F)c1-n1cc(-n2cc(C(=O)NC3(C#N)CC3)c(C(F)(F)F)n2)cn1 [Compound 11]
≥ 80%: percent effect (mortality or growth inhibition) at 200 ppm (Diabrotica balteata) | mortality at 200 ppm (Thrips tabaci) | control (mortality, anti-feedant effect or growth inhibition) at 200 ppm (Spodoptera littoralis) | mortality at 200 ppm (Tetranychus urticae) | percent effect (mortality or growth inhibition) at 200 ppm (Plutella xylostella)

C=C(C)CNC(=O)c1cc(-c2cnn(-c3c(C(F)(F)F)c(C(F)(F)C(F)(F)F)nn3C)c2)sc1Cl [Compound 13]
≥ 80%: control (mortality, anti-feedant effect or growth inhibition) at 200 ppm (Spodoptera littoralis) | mortality at 200 ppm (Tetranychus urticae) | percent effect (mortality or growth inhibition) at 200 ppm (Plutella xylostella)

Cn1nc(C(F)(F)C(F)(F)F)c(C(F)(F)F)c1-n1cc(-c2cc(C(=O)NCc3ccccc3)c(Cl)s2)cn1 [Compound 19]
≥ 80%: percent effect (mortality or growth inhibition) at 200 ppm (Diabrotica balteata) | control (mortality, anti-feedant effect or growth inhibition) at 200 ppm (Spodoptera littoralis) | mortality at 200 ppm (Tetranychus urticae) | percent effect (mortality or growth inhibition) at 200 ppm (Plutella xylostella)

Cn1nc(C(F)(F)C(F)(F)F)c(C(F)(F)F)c1-n1cc(-c2cc(C(=O)Nc3ccncc3)c(Cl)s2)cn1 [Compound 21]
≥ 80%: percent effect (mortality or growth inhibition) at 200 ppm (Diabrotica balteata) | mortality at 200 ppm (Thrips tabaci) | control (mortality, anti-feedant effect or growth inhibition) at 200 ppm (Spodoptera littoralis) | percent effect (mortality or growth inhibition) at 200 ppm (Plutella xylostella)

Cn1nc(C(F)(F)C(F)(F)F)c(C(F)(F)F)c1-n1cc(-c2cc(C(=O)NC3(C(F)(F)F)CC3)c(Cl)s2)cn1 [Compound 22]
≥ 80%: percent effect (mortality or growth inhibition) at 200 ppm (Diabrotica balteata) | mortality at 200 ppm (Thrips tabaci) | control (mortality, anti-feedant effect or growth inhibition) at 200 ppm (Spodoptera littoralis) | mortality at 200 ppm (Tetranychus urticae) | percent effect (mortality or growth inhibition) at 200 ppm (Plutella xylostella)

CC(C)CNC(=O)c1cc(-c2cnn(-c3c(C(F)(F)F)c(C(F)(F)C(F)(F)F)nn3C)c2)sc1Cl [Compound 23]
≥ 80%: percent effect (mortality or growth inhibition) at 200 ppm (Diabrotica balteata) | control (mortality, anti-feedant effect or growth inhibition) at 200 ppm (Spodoptera littoralis) | mortality at 200 ppm (Tetranychus urticae) | percent effect (mortality or growth inhibition) at 200 ppm (Plutella xylostella)

Cn1nc(C(F)(F)C(F)(F)F)c(C(F)(F)F)c1-n1cc(-c2cc(C(=O)Nc3ccc(Cl)cc3)c(Cl)s2)cn1 [Compound 25]
≥ 80%: percent effect (mortality or growth inhibition) at 200 ppm (Diabrotica balteata) | percent effect (mortality or growth inhibition) at 200 ppm (Plutella xylostella)

Cn1nc(C(F)(F)C(F)(F)F)c(C(F)(F)F)c1-n1cc(-c2cc(C(=O)NCc3ccccn3)c(Cl)s2)cn1 [Compound 26]
≥ 80%: percent effect (mortality or growth inhibition) at 200 ppm (Diabrotica balteata) | control (mortality, anti-feedant effect or growth inhibition) at 200 ppm (Spodoptera littoralis) | mortality at 200 ppm (Tetranychus urticae) | percent effect (mortality or growth inhibition) at 200 ppm (Plutella xylostella)

Cn1nc(C(F)(F)C(F)(F)F)c(C(F)(F)F)c1-n1cc(-c2cc(C(=O)NCCC(F)(F)F)c(Cl)s2)cn1 [Compound 30]
≥ 80%: percent effect (mortality or growth inhibition) at 200 ppm (Diabrotica balteata) | mortality at 200 ppm (Thrips tabaci) | control (mortality, anti-feedant effect or growth inhibition) at 200 ppm (Spodoptera littoralis) | mortality at 200 ppm (Tetranychus urticae) | percent effect (mortality or growth inhibition) at 200 ppm (Plutella xylostella)

Cn1nc(C(F)(F)C(F)(F)F)c(OC(F)F)c1-n1cc(-c2cc(C(=O)NC3(C#N)CC3)cs2)cn1 [Compound 39]
≥ 80%: percent effect (mortality or growth inhibition) at 200 ppm (Diabrotica balteata) | control (mortality, anti-feedant effect or growth inhibition) at 200 ppm (Spodoptera littoralis) | mortality at 200 ppm (Tetranychus urticae) | percent effect (mortality or growth inhibition) at 200 ppm (Plutella xylostella)

Cn1nc(C(F)(F)C(F)(F)F)c(C(F)(F)F)c1-n1cc(-c2csc(C(=O)NC3CC3)n2)cn1 [Compound 40]
≥ 80%: percent effect (mortality or growth inhibition) at 200 ppm (Diabrotica balteata) | control (mortality, anti-feedant effect or growth inhibition) at 200 ppm (Spodoptera littoralis) | percent effect (mortality or growth inhibition) at 200 ppm (Plutella xylostella)

Cn1nc(C(F)(F)C(F)(F)F)c(C(F)(F)F)c1-n1cc(-c2csc(C(=O)NC3(C#N)CC3)n2)cn1 [Compound 41]
≥ 80%: percent effect (mortality or growth inhibition) at 200 ppm (Diabrotica balteata) | control (mortality, anti-feedant effect or growth inhibition) at 200 ppm (Spodoptera littoralis) | percent effect (mortality or growth inhibition) at 200 ppm (Plutella xylostella)

Cn1nc(C(F)(F)C(F)(F)F)c(C(F)(F)F)c1-n1cc(-n2cc(C(=O)NC3(C#N)CC3)c(C(F)(F)F)c2)cn1 [Compound 44]
≥ 80%: percent effect (mortality or growth inhibition) at 200 ppm (Diabrotica balteata) | mortality at 200 ppm (Thrips tabaci) | control (mortality, anti-feedant effect or growth inhibition) at 200 ppm (Spodoptera littoralis) | percent effect (mortality or growth inhibition) at 200 ppm (Plutella xylostella)

Cc1nn(-c2cnn(-c3c(C(F)(F)F)c(C(F)(F)C(F)(F)F)nn3C)c2)cc1C(=O)NC1CC1 [Compound 46]
≥ 80%: control (mortality, anti-feedant effect or growth inhibition) at 200 ppm (Spodoptera littoralis) | percent effect (mortality or growth inhibition) at 200 ppm (Plutella xylostella)

Cn1nc(C(F)(F)C(F)(F)F)c(C(F)(F)F)c1-n1cc(-c2csc(C(=O)NC3(C#N)CC3)c2)cn1 [Compound 51]
≥ 80%: percent effect (mortality or growth inhibition) at 200 ppm (Diabrotica balteata) | control (mortality, anti-feedant effect or growth inhibition) at 200 ppm (Spodoptera littoralis) | percent effect (mortality or growth inhibition) at 200 ppm (Plutella xylostella)
